test system: SA 9218; assay: MIC by standard agar dilution method; format: cell-based; conditions: Mueller Hinton agar, 10^4 to 10^5 cells per spot, incubated overnight at 35° C., lowest concentration that inhibits visible growth
In short: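 Agar dilution: two-fold compound dilutions mixed into molten Mueller Hinton agar, spots of ~10^4–10^5 cells from 0.5 McFarland suspension diluted 1:20 in TSB. Incubated overnight at 35 °C; MIC is lowest concentration inhibiting visible growth.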

MIC, 1 µg/mL:
O=C(Nc1ccc(-c2cc(C(F)(F)F)cc(C(F)(F)F)c2)cc1C(=O)O)c1cccc(S(=O)(=O)N2CCc3cc(Cl)ccc32)c1 [PHA-563280]
O=C(Nc1ccc(Cl)cc1C(=O)O)c1ccc(S(=O)(=O)N2CCc3ccccc32)c([N+](=O)[O-])c1 [PNU-283599]
N#Cc1ccc(NC(=O)c2cccc(Oc3ccccc3)c2)c(C(=O)O)c1 [PHA-535553]
O=C(Nc1ccc(Br)cc1C(=O)O)c1cccc(Sc2ccccc2)c1 [PHA-526580]

MIC, 4 µg/mL:
O=C(Nc1ccc(Cl)cc1C(=O)O)c1cccc(S(=O)(=O)N2CCOCC2)c1 [PHA-571395]
COC(=O)C(Oc1cccc(C(=O)Nc2ccc(Br)cc2C(=O)O)c1)c1ccccc1 (centres unmarked)
C[C@H](c1ccccc1)N(C)S(=O)(=O)c1cccc(C(=O)Nc2ccc(C#N)cc2C(=O)O)c1 [PHA-562862]
N#CC1(c2ccccc2)CCN(S(=O)(=O)c2ccc(C(=O)Nc3ccc(I)cc3C(=O)O)cc2)CC1
O=C(Nc1ccc(-c2cccs2)cc1C(=O)O)c1ccc(S(=O)(=O)N2CCc3ccccc32)cc1
COc1ccc(C(=O)Nc2ccc(Br)cc2C(=O)O)cc1S(=O)(=O)N1CCc2ccccc21
Nc1cc(C(=O)Nc2ccc(Cl)cc2C(=O)O)ccc1S(=O)(=O)N1CCc2ccccc21 [PNU-290881A]
CCCCCOc1ccc(C(=O)Nc2ccc(C#N)cc2C(=O)O)cc1
O=C(Nc1ccc(Br)cc1C(=O)O)c1cccc(OCc2ccccc2)c1 [drawing 1037]
CC(=O)c1cccc(NC(=O)Nc2cccc(C(=O)Nc3ccc(Br)cc3C(=O)O)c2)c1 [PHA-708993]
O=C(Nc1ccc(Br)cc1C(=O)O)c1cccc(SCc2ccccc2)c1 [PNU-293049]

MIC, 0.125 µg/mL:
COc1ccc2c(ccn2S(=O)(=O)c2cccc(C(=O)Nc3ccc(C#N)cc3C(=O)O)c2)c1 [PHA-543139]

MIC, 16 µg/mL:
COC(=O)c1ccc(COc2cccc(C(=O)Nc3ccc(Br)cc3C(=O)O)c2)cc1 [PHA-571283]
O=C(Nc1ccc(Cl)cc1C(=O)O)c1cccc(C(NCc2cccc(Cl)c2)c2ccccc2)c1 (centres unmarked)
O=C(Nc1ccc(Br)cc1C(=O)O)c1ccc(OCc2cccc([N+](=O)[O-])c2)cc1
N#Cc1ccc(NC(=O)c2cccc(S(=O)(=O)N3CCc4ccccc4C3)c2)c(C(=O)O)c1 [PHA-571269]
CCCC(=O)c1ccc(NC(=O)c2ccc(S(=O)(=O)N3CCc4ccc(Cl)cc43)cc2)c(C(=O)O)c1
CC(C)C(=O)c1cccc(C(=O)Nc2ccc(Cl)cc2C(=O)O)c1 [PHA-656884]
COc1cc(OC)cc(C(=O)Nc2ccc(Br)cc2C(=O)O)c1
Cc1cc(C)c(C(=O)Nc2cccc(C(=O)Nc3ccc(Br)cc3C(=O)O)c2)c(C)c1 [PHA-708981]
CCCN(CCC)S(=O)(=O)c1ccc(C(=O)Nc2ccc(Cl)cc2C(=O)O)cc1N.Cl [PNU-283603A]

MIC, 32 µg/mL:
CC(C)N(Cc1ccccc1)S(=O)(=O)c1cccc(C(=O)Nc2ccc(C#N)cc2C(=O)O)c1 [PHA-571216]
O=C(Nc1ccc(Br)cc1C(=O)O)c1ccc(OCc2cccc(F)c2)cc1
O=C(Nc1ccc(Br)cc1C(=O)O)c1cccc(S(=O)(=O)Nc2ccc(N3CCOCC3)cc2)c1
O=C(O)c1cc(Br)ccc1NC(=O)c1cccc2ccccc12
CCCC(CCC)S(=O)(=O)c1ccc(C(=O)Nc2ccc(Cl)cc2C(=O)O)cc1NO.Cl [PNU-283601A]

MIC, > 128 µg/mL:
O=C(Nc1ccc(-c2ccc(C(F)(F)F)cc2)cc1C(=O)O)c1cccc(S(=O)(=O)N2CCOCC2)c1 [PHA-610940]
N#Cc1cccc(NC(=O)Nc2ccc(C(=O)Nc3ccc(Br)cc3C(=O)O)cc2)c1 [PHA-713395]
CN1CCCC1COc1ccc(C(=O)Nc2ccc(Br)cc2C(=O)O)cc1 (centres unmarked)
O=C(Nc1ccc(Br)cc1C(=O)O)c1ccc(OCCN2CCCC2=O)cc1
CN(CCC#N)S(=O)(=O)c1ccc(C(=O)Nc2ccc(C#N)cc2C(=O)O)cc1 [PHA-571232]
Cc1ccc(S(=O)(=O)NCCc2ccc(N)cc2)cc1C(=O)Nc1ccc(Br)cc1C(=O)O
C#CC(CC)Oc1ccc(C(=O)Nc2ccc(Br)cc2C(=O)O)cc1 (centres unmarked)
O=C(Nc1ccc(-c2ccccn2)cc1C(=O)O)c1cccc(S(=O)(=O)N2CCc3cc(Cl)ccc32)c1 [PHA-563324]
O=C(Nc1ccc(Br)cc1C(=O)O)c1cccc(OCc2ccncc2)c1

MIC, 0.5 µg/mL:
O=C(Nc1ccc(-c2ccccc2C(F)(F)F)cc1C(=O)O)c1cccc(S(=O)(=O)N2CCc3cc(Cl)ccc32)c1 [PHA-563279]
O=C(Nc1ccc(Br)cc1C(=O)O)c1cccc(S(=O)(=O)n2ccc3ccccc32)c1 [PHA-516116]
CN(c1ccccc1N)S(=O)(=O)c1cccc(C(=O)Nc2ccc(C#N)cc2C(=O)O)c1 [PHA-670083]

MIC, 2 µg/mL:
CCSc1ccc(C(=O)Nc2ccc(C#N)cc2C(=O)O)cc1
N#Cc1ccc(NC(=O)c2ccc3ccccc3c2)c(C(=O)O)c1
N#Cc1ccc(NC(=O)c2cccc(S(=O)(=O)N3CCN(c4ccc([N+](=O)[O-])cc4)CC3)c2)c(C(=O)O)c1 [PHA-656810]
O=C(Nc1ccc(Br)cc1C(=O)O)c1cccc(SCc2ccncc2)c1 [PHA-502339]
O=C(Nc1ccc(Br)cc1C(=O)O)c1cccc(C(=O)c2ccccc2)c1 [PHA-515448]
CC(=O)c1ccc(NC(=O)c2cccc(S(=O)(=O)N3CCc4cc(Cl)ccc43)c2)c(C(=O)O)c1 [PHA-719201]
CC(C)(C)OC(=O)NC(COc1cccc(C(=O)Nc2ccc(Br)cc2C(=O)O)c1)c1ccccc1 (centres unmarked) [PHA-571287]
O=C(Nc1ccc(-c2ccc(Cl)s2)cc1C(=O)O)c1cccc(S(=O)(=O)N2CCc3cc(Cl)ccc32)c1 [PHA-568206]

MIC, 0.25 µg/mL:
N#Cc1ccc(NC(=O)c2ccc3c(c2)S(=O)(=O)N(c2ccc(Cl)cc2)CC3)c(C(=O)O)c1 [PHA-562745]
O=C(Nc1ccc(Br)cc1C(=O)O)c1cccc(S(=O)(=O)N2CCc3cc(Cl)ccc32)c1 [PNU-288969]

MIC, 8 µg/mL:
CN(c1ccccn1)S(=O)(=O)c1ccc(C(=O)Nc2ccc(Br)cc2C(=O)O)cc1 [PHA-516112]
CC1CC(C)CN(S(=O)(=O)c2ccc(C(=O)Nc3ccc(C#N)cc3C(=O)O)cc2)C1 (centres unmarked) [PHA-571234]
CCCNC(c1cccnc1)c1cccc(C(=O)Nc2ccc(Cl)cc2C(=O)O)c1 (centres unmarked)
N#Cc1ccc(NC(=O)c2cccc(S(=O)(=O)N3CCCCCC3)c2)c(C(=O)O)c1 [PHA-571224]
O=C(Nc1ccc(Br)cc1C(=O)O)c1cc(Cl)cc(Cl)c1
COc1cccc(COc2ccc(C(=O)Nc3ccc(Br)cc3C(=O)O)cc2)c1
O=C(Nc1ccc(-c2ccco2)cc1C(=O)O)c1cccc(S(=O)(=O)N2CCc3cc(Cl)ccc32)c1 [PHA-556663]
O=C(Nc1ccc(Br)cc1C(=O)O)c1cccc(NC(=S)Nc2cc(Cl)cc(Cl)c2)c1 [PHA-713396]
N#Cc1ccc(NC(=O)c2cccc(S(=O)(=O)N3CCCC4CCCCC43)c2)c(C(=O)O)c1 (centres unmarked) [PHA-571235]
O=C(Nc1cccc(C(=O)Nc2ccc(Br)cc2C(=O)O)c1)Nc1ccc(F)cc1F [PHA-708989]

MIC, 128 µg/mL:
O=C(O)c1cc(Br)ccc1NC(=O)c1cccc2c1-c1ccccc1C2=O
O=C(Nc1ccc(Br)cc1C(=O)O)c1cc(F)ccc1F
Cc1ccc(C(=O)Nc2ccc(Br)cc2C(=O)O)cc1S(=O)(=O)NCc1ccc(N(C)C)cc1
O=C(Nc1ccc(Br)cc1C(=O)O)c1ccc(OC2CCOCC2)cc1
O=C(Nc1ccc(C(=NO)c2ccccc2)cc1C(=O)O)c1ccc(S(=O)(=O)N2CCc3ccccc32)cc1

MIC, 64 µg/mL:
N#Cc1ccc(NC(=O)c2cccc(S(=O)(=O)N(CCO)Cc3ccccc3)c2)c(C(=O)O)c1 [PHA-656808]
N#Cc1ccc(NC(=O)c2ccc(S(=O)(=O)N3CCCCCC3)cc2)c(C(=O)O)c1 [PHA-571174]
CS(=O)(=O)c1cccc(C(=O)Nc2ccc(Br)cc2C(=O)O)c1 [PHA-513541]
CN(C)c1ccc(CNS(=O)(=O)c2cccc(C(=O)Nc3ccc(Br)cc3C(=O)O)c2)cc1
N#Cc1ccc(NC(=O)c2ccc(O)cc2)c(C(=O)O)c1
Cc1cccc(C(=O)Nc2ccc(Br)cc2C(=O)O)c1
Nc1ccc(CCNS(=O)(=O)c2cccc(C(=O)Nc3ccc(Br)cc3C(=O)O)c2)cc1
O=C(Nc1ccc(Br)cc1C(=O)O)c1ccc(OCc2cccnc2)cc1

SA 9218 MIC, 8 µg/mL:
O=C(Nc1ccc(Cl)cc1C(=O)O)c1ccc(C(=O)C2CCCC2)cc1 [drawing 1027]
O=C(Nc1ccc(Cl)cc1C(=O)O)c1cccc(C(=NO)c2ccco2)c1 [drawing 1121]
